Several values for one entry are separate records, joined by “and”; a condition that tells them apart may be missing. Equal values may be shown once. Read-outs that look alike come from different tables or passages of the source.

The values that follow come from paper PMC6151531, “Development of a Non-Hydroxamate Dual Matrix Metalloproteinase (MMP)-7/-13 Inhibitor” (Molecules : A Journal of Synthetic Chemistry and Natural …, 2017).

Experiment [1] has as its target T1, MMP-7 (Homo sapiens, UniProt P09237).
T1 sequence (P09237 95-267): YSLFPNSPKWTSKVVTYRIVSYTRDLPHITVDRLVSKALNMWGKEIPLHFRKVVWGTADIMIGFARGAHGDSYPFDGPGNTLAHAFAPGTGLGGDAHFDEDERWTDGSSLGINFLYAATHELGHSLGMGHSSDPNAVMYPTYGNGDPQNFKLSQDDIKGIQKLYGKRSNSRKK
As to conditions: cited from earlier work.

A further experiment deals with MMP-13 (Homo sapiens, UniProt P45452). Put plainly: MMP-13 FRET peptide enzyme assay (single dose 10 μM and IC50). The following applies: for activity at 10 µM: remaining enzyme activity at 10 μM inhibitor concentration. Type of experiment: biochemical.
In experiment [2] the target is T1, MMP-7. As to conditions: 10 µM inhibitor concentration; cited from earlier work.
In experiment [3] the target is T2, MMP-1 (Homo sapiens, UniProt P03956).
T2 sequence (P03956 100-469): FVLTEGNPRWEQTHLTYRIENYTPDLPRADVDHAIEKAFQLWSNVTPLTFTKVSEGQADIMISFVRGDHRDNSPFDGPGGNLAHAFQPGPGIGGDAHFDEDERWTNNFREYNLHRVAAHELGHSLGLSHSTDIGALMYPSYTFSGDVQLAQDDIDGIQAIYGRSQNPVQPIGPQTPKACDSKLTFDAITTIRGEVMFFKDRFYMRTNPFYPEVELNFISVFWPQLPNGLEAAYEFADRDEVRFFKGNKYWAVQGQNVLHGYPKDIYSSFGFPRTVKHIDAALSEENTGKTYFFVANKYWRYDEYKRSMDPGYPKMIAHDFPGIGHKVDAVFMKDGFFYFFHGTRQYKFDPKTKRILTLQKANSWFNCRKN
As to conditions: 10 µM inhibitor concentration; cited from earlier work.

The target of experiment [4] is T3, MMP-2 (Homo sapiens, UniProt P08253).
T3 sequence (P08253 110-660): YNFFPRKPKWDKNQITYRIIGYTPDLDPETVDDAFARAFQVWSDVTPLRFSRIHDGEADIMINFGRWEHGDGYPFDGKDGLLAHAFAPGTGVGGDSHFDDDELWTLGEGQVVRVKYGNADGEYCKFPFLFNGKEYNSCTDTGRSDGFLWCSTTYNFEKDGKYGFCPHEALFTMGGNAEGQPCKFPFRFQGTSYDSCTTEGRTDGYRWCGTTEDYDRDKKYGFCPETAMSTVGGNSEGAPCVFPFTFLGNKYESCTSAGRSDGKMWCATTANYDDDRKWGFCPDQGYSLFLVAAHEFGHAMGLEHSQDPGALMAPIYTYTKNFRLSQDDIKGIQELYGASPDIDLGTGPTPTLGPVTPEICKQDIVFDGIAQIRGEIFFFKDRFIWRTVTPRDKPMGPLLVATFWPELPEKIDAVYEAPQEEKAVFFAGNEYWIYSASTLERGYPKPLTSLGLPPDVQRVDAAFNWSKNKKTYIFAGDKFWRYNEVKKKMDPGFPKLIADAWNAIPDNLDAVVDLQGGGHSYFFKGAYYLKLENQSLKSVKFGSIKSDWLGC
As to conditions: 10 µM inhibitor concentration; cited from earlier work.

Experiment [5] concerns the target T4, MMP-3 (Homo sapiens, UniProt P08254). As to conditions: 10 µM inhibitor concentration; cited from earlier work.
For experiment [6], the target named is T5, MMP-8 (Homo sapiens, UniProt P22894). The following applies: 10 µM inhibitor concentration; cited from earlier work.
T5 sequence (P22894 101-467): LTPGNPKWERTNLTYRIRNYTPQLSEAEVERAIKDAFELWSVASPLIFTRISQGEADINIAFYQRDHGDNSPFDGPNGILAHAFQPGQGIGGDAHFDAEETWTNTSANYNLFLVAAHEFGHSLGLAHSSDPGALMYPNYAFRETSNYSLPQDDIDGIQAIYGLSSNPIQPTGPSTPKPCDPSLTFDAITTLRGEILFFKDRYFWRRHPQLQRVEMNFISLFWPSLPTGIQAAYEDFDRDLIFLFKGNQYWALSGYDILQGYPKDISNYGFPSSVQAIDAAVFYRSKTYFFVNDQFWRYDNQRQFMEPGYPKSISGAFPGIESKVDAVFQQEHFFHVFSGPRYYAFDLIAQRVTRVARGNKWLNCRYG
Experiment [7] concerns the target T6, MMP-9 (Homo sapiens, UniProt P14780). As to conditions: 10 µM inhibitor concentration; cited from earlier work.
In experiment [8] the target is T7, MMP-12 (Homo sapiens, UniProt P39900). As to conditions: 10 µM inhibitor concentration; cited from earlier work.
T7 sequence (P39900 106-470): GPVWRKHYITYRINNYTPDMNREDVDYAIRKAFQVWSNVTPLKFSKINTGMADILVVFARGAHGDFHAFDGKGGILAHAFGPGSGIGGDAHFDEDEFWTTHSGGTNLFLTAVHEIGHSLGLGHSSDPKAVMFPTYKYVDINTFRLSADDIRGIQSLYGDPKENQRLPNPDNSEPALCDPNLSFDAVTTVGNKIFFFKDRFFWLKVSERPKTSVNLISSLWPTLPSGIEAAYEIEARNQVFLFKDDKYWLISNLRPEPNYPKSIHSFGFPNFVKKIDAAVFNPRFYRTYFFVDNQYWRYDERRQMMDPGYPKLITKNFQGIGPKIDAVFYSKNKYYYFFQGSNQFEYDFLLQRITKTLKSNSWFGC
For experiment [9], the target named is T8, MMP-14 (Homo sapiens, UniProt P50281). As to conditions: 10 µM inhibitor concentration; cited from earlier work.
Experiment [10] deals with T1, MMP-7. Put plainly: MMP-7 FRET peptide enzyme assay (single dose 10 μM and IC50). The following applies: for IC50: IC50 MMP-7, measured in duplicate; for activity at 10 µM: read-out: % Activity MMP-7.
Method: (§1) The buffer consisted of 50 mM HEPES at pH 7.5 with 10 mM CaCl2 and 0.01% Brij-35. 0.1 mg/mL BSA (Sigma Aldrich, St. Louis, MO, USA) was added before use. As a control inhibitor GM6001 (ilomastat, Enzo Life Sciences, Farmingdale, NY, USA) was used. For selectivity examinations single dose duplicate assays were performed in the same manner as described above on the MMP-1, -2, -3, -8, -9, -12 and -14 isoforms.
In experiment [11] the target is T2, MMP-1. Put plainly: MMP-1 single dose selectivity assay. As to conditions: read-out: Remaining enzymatic activity MMP-1.
Experiment [12] concerns the target T3, MMP-2. As to the kind of experiment: MMP-2 single dose selectivity assay. As to conditions: read-out: Remaining enzymatic activity MMP-2.
Experiment [13] has as its target T4, MMP-3. Put plainly: MMP-3 single dose selectivity assay. As to conditions: read-out: Remaining enzymatic activity MMP-3.
For experiment [14], the target named is T5, MMP-8. Put plainly: MMP-8 single dose selectivity assay. As to conditions: read-out: Remaining enzymatic activity MMP-8.
Method: (§2) The buffer consisted of 50 mM HEPES at pH 7.5 with 10 mM CaCl2 and 0.01% Brij-35. 0.1 mg/mL BSA (Sigma Aldrich, St. Louis, MO, USA) was added before use. As a control inhibitor GM6001 (ilomastat, Enzo Life Sciences, Farmingdale, NY, USA) was used.
In experiment [15] the target is T6, MMP-9. As to the kind of experiment: MMP-9 single dose selectivity assay. The following applies: read-out: Remaining enzymatic activity MMP-9.
Method: as §2
The target in experiment [16] is T7, MMP-12. Put plainly: MMP-12 single dose selectivity assay. The following applies: read-out: Remaining enzymatic activity MMP-12.
Method: as §2
The target of experiment [17] is T8, MMP-14. Put plainly: MMP-14 single dose selectivity assay. The following applies: read-out: Remaining enzymatic activity MMP-14.
Method: as §2

T6 sequence (P14780 94-707): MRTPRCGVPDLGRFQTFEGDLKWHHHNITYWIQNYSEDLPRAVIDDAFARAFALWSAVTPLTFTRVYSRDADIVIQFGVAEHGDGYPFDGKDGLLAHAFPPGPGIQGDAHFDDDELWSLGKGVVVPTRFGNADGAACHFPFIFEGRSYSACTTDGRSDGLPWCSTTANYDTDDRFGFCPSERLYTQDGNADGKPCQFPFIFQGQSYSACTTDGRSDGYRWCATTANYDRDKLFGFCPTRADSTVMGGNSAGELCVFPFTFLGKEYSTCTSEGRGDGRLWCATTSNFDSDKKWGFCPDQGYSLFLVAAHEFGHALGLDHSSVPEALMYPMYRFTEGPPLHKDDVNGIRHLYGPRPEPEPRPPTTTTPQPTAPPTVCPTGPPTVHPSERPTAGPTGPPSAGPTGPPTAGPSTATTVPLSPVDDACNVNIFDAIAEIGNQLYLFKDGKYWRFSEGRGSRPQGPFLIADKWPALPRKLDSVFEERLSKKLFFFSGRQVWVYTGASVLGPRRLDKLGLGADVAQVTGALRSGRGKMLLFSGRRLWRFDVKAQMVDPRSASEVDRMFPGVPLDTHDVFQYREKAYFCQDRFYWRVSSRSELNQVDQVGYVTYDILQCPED
T4 sequence (P08254 100-477): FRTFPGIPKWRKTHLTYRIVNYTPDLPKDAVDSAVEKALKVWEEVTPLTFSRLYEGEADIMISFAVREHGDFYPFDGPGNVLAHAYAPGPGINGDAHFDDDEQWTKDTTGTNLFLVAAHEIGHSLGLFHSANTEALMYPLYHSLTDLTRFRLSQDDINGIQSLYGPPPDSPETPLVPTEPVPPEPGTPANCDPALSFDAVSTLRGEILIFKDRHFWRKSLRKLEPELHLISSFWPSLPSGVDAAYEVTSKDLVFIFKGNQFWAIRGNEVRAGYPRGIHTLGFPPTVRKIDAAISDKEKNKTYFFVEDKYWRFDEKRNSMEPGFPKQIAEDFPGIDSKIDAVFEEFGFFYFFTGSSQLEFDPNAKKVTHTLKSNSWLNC
Method for MMP-13: as §1

Broadly, the IC50 is the concentration needed to halve the response being measured. For the molecule `O=C(O)C(Cc1c[nH]c2ccccc12)NS(=O)(=O)c1ccc(Cl)c(C(F)(F)F)c1` (centres unmarked) [Compound 3], the “selectivity over MMP-1” value at MMP-7 [1] (MMP-7 over MMP-1) is listed as 10 fold. Besides, on MMP-7 [1] (MMP-7 over MMP-14), the “selectivity over MMP-14” value is recorded as 10 fold. For the same molecule, the IC50 at MMP-7 [1] is 10 µM.
On to `O=C(O)CCCCOc1ccc(CC(=O)Nc2ccc3c(c2)C(=O)N(Cc2ccc(F)cc2)C3=O)cc1` [Compound 5, 5-{4-[({2-[(4-Fluorophenyl)methyl]-1,3-dioxo-2,3-dihydro-1H-isoindol-5-yl}carbamoyl)methyl]-phenoxy}pentanoic acid], for which the “selectivity for MMP-13 over MMP-7” value at MMP-13 (from IC50-values) is reported as greater than 2600 fold. For the same molecule, the “Remaining enzymatic activity MMP-7” value at MMP-7 [2] is on record as 68%. Further, on MMP-1 [3], the “Remaining enzymatic activity MMP-1” value is listed as 100%. The “Remaining enzymatic activity MMP-2” value on MMP-2 [4] is 100%. Further, the “Remaining enzymatic activity MMP-3” value on MMP-3 [5] is reported as 100%. For the same molecule, the “Remaining enzymatic activity MMP-8” value at MMP-8 [6] is reported as 97%. For the same molecule, on MMP-9 [7], the “Remaining enzymatic activity MMP-9” value is given as 100%. Also, the “Remaining enzymatic activity MMP-12” value at MMP-12 [8] was 91%. Also, on MMP-14 [9], the “Remaining enzymatic activity MMP-14” value is 100%. Moreover, on MMP-7 [10], the half-inhibitory concentration (IC50) is 15.7 µM and 15.6 µM; the activity at 10 µM was determined as 67.5 ± 2.6%.
As a reminder, the remaining activity is what remains of the control signal, in per cent. In the case of `O=C(O)CCCCCCCCOc1ccc(CC(=O)Nc2ccc3c(c2)C(=O)N(Cc2ccccc2)C3=O)cc1` [Compound 14i, 9-(4-{[(2-Benzyl-1,3-dioxo-2,3-dihydro-1H-isoindol-5-yl)carbamoyl]methyl}phenoxy)nonanoic acid], the 50% inhibitory concentration (IC50) was 1.2 µM and 1.25 µM on MMP-13 (measured in duplicate); 2.2 µM and 2.25 µM against MMP-7 [10]. The remaining activity at 10 µM at MMP-1 [11] worked out at 100%; at MMP-2 [12], 98%; on MMP-3 [13], 73%; on MMP-8 [14], 80%; on MMP-9 [15], 87%; on MMP-12 [16] it was 97%. In addition, the remaining activity at 10 µM on MMP-14 [17] was found to be 91%.
As to `O=C(O)CCCCCOc1ccc(CC(=O)Nc2ccc3c(c2)C(=O)N(Cc2ccc(F)cc2)C3=O)cc1` [Compound 14m, 6-{4-[({2-[(4-Fluorophenyl)methyl]-1,3-dioxo-2,3-dihydro-1H-isoindol-5-yl}carbamoyl)methyl]-phenoxy}hexanoic acid], the activity at 10 µM stood at 1.2 ± 0.1% on MMP-13 (measured in duplicate) and 69.2 ± 0.1% on MMP-7 [10].
On to `O=C(O)CCCCCCOc1ccc(CC(=O)Nc2ccc3c(c2)C(=O)N(Cc2ccc(F)cc2)C3=O)cc1` [Compound 14n, 7-{4-[({2-[(4-Fluorophenyl)methyl]-1,3-dioxo-2,3-dihydro-1H-isoindol-5-yl}carbamoyl)methyl]-phenoxy}heptanoic acid], for which the activity at 10 µM on MMP-13 (measured in duplicate) amounted to 1.9 ± 0.5%; on MMP-7 [10], 47.5 ± 5.1%.
For `O=C(O)CCCCCCCOc1ccc(CC(=O)Nc2ccc3c(c2)C(=O)N(Cc2ccc(F)cc2)C3=O)cc1` [Compound 14o, 8-{4-[({2-[(4-Fluorophenyl)methyl]-1,3-dioxo-2,3-dihydro-1H-isoindol-5-yl}carbamoyl)methyl]-phenoxy}octanoic acid], the activity at 10 µM on MMP-13 (measured in duplicate) worked out at 34.6 ± 2.3%; at MMP-7 [10], 64.5 ± 3.7%.
